Laboratory results as given in patent US11083717B2, “Compositions and methods for drug sensitization of parasites” (The Texas A&M University System, priority 2015, dated 2021).
Where two headings read alike, the source gives them in different places.

Columns and labels:
S. cerevisiae = experiment: in vitro; settings: Saccharomyces cerevisiae
From the text: (§1) These tests included an IL-12 mouse model test to determine compound efficacy, verification of MIC50 for CP, cytotoxicity test for fibroblasts and yeast to determine potential toxic effects, a Human ether-a-go-go-related gene (hERG) test to determine potential cardiotoxicity, an AMES test tp determine mutagenic potential, a Safety Screen 44 test to determine common negative off-target drug interastion (Eurofins Cerep, SA, France), a cytochrome P450 (CYP) test to determine potential liver toxicity, a maximum tolerated dose, test, a Pharmacokinetics (PK) test to determine fate of the substance administered to a living organism tests for plasma stability in human and mouse, to measure the degradation of compound in plasma MClint and HClint test to determine in vitro intrinsic clearance for Mouse and Human, and kinetic solubility and plasma protein binding tests in mouse and human.

human fibroblast = experiment: in vitro
From the text: as §1

| Compound | concentrations at which not toxic, S. cerevisiae cytotoxicity testing (S. cerevisiae) [µM] | concentrations at which not toxic, human fibroblast cytotoxicity testing (human fibroblast; human) [µM] | concentrations at which not toxic, human fibroblast cytotoxicity testing (human fibroblast) [µM] |
| --- | --- | --- | --- |
| CC(C)NC(=O)Nc1ccc(Oc2nc3ccc(Cl)cc3s2)c[n+]1[O-] [NZ-391, 1-{5-[(6-chloro-1,3-benzothiazol-2-yl)oxy]-1-oxo-1λ^5-pyridin-2-yl}-3-(propan-2-yl)urea] | ≥ 100 | ≥ 100 |  |
| CNC(=O)Cc1ccc(Oc2nc3ccc(Cl)cc3s2)cc1OC [NZ-392, 2-{4-[(6-chloro-1,3-benzothiazol-2-yl)oxy]-2-methoxyphenyl}-N-methylacetamide] | ≥ 100 |  | ≥ 100 |
| CC(C)NC(=O)Nc1ccc(Oc2nc3cc(Cl)c(Cl)cc3s2)cc1 [NZ-393, 1-{4-[(5,6-dichloro-1,3-benzothiazol-2-yl)oxy]phenyl}-3-(propan-2-yl)urea] | ≥ 100 |  | ≥ 100 |
| CNC(=O)C(C)c1ccc(Oc2nc3cc(Cl)c(Cl)cc3s2)cc1 (stereo not shown) [NZ-394, 2-{4-[(5,6-dichloro-1,3-benzothiazol-2-yl)oxy]phenyl}-N-methylpropanamide] | ≥ 100 | ≥ 100 |  |
| COC(=O)Cn1ccc(Oc2nc3ccc(Cl)cc3s2)cc1=O [NZ-396, methyl 2-{4-[(6-chloro-1,3-benzothiazol-2-yl)oxy]-2-oxo-1,2-dihydropyridin-1-yl}acetate] | ≥ 100 | ≥ 100 |  |
| O=C(O)Cn1ccc(Oc2nc3ccc(Cl)cc3s2)cc1=O [NZ-397, 2-{4-[(6-chloro-1,3-benzothiazol-2-yl)oxy]-2-oxo-1,2-dihydropyridin-1-yl}acetic acid] | ≥ 100 |  | ≥ 100 |
| O=C(O)Cc1ccc(Oc2nc3cc(F)c(F)cc3s2)cc1 [NZ-399, 2-{4-[(5,6-difluoro-1,3-benzothiazol-2-yl)oxy]phenyl}acetic acid] | ≥ 100 |  | ≥ 100 |
| CNC(=O)Cc1ccc(Oc2cnc3cc(Cl)ccc3n2)cc1O [NZ-402, 2-{4-[(6-chloroquinoxalin-2-yl)oxy]-2-hydroxyphenyl}-N-methylacetamide] | ≥ 100 |  | ≥ 100 |
| CC(C)NC(=O)Cn1ccc(Oc2nc3ccc(Cl)cc3s2)cc1=O [NZ-404, 2-{4-[(6-chloro-1,3-benzothiazol-2-yl)oxy]-2-oxo-1,2-dihydropyridin-1-yl}-N-(propan-2-yl)acetamide] | ≥ 100 | ≥ 100 |  |
| CC(C)NC(=O)Cc1ccc(O)cc1Oc1nc2ccc(F)cc2s1 [NZ-406, 2-{2-[(6-fluoro-1,3-benzothiazol-2-yl)oxy]-4-hydroxyphenyl}-N-(propan-2-yl)acetamide] | ≥ 100 | ≥ 100 |  |
| CC(C)NC(=O)Cc1ccc(Oc2nc3cc(F)c(F)cc3s2)cc1O [NZ-407, 2-{4-[(5,6-difluoro-1,3-benzothiazol-2-yl)oxy]-2-hydroxyphenyl}-N-(propan-2-yl)acetamide] | ≥ 100 | ≥ 100 |  |
| CNC(=O)C(C)c1ccc(Oc2nc3ccc(F)cc3s2)cc1O (stereo not shown) [NZ-408, 2-{4-[(6-fluoro-1,3-benzothiazol-2-yl)oxy]-2-hydroxyphenyl}-N-methylpropanamide] | ≥ 100 | ≥ 100 |  |
| CC(C)(C)OC(=O)Nc1ccc(Oc2nc3ccc(F)cc3s2)cc1 [NZ-412, tert-butyl N-{4-[(6-fluoro-1,3-benzothiazol-2-yl)oxy]phenyl}carbamate] | ≥ 100 | ≥ 100 |  |
| Nc1ccc(Oc2nc3ccc(F)cc3s2)cc1 [NZ-413, 4-[(6-fluoro-1,3-benzothiazol-2-yl)oxy]aniline] | ≥ 100 | ≥ 100 |  |
| CC(C)(C)OC(=O)NCCC(=O)Nc1ccc(Oc2nc3ccc(F)cc3s2)cc1 [NZ-414, tert-butyl N-[2-({4-[(6-fluoro-1,3-benzothiazol-2-yl)oxy]phenyl}carbamoyl)ethyl]carbamate] | ≥ 100 | ≥ 100 |  |
| CC(C)(C)OC(=O)NCC(=O)Nc1ccc(Oc2nc3ccc(F)cc3s2)cc1 [NZ-415, tert-butyl N-[({4-[(6-fluoro-1,3-benzothiazol-2-yl)oxy]phenyl}carbamoyl)methyl]carbamate] | ≥ 100 | ≥ 100 |  |
| NCCC(=O)Nc1ccc(Oc2nc3ccc(F)cc3s2)cc1 [NZ-416, 3-amino-N-{4-[(6-fluoro-1,3-benzothiazol-2-yl)oxy]phenyl}propanamide] | ≥ 100 | ≥ 100 |  |
| O=C(O)Cn1ccc(Oc2nc3ccc(F)cc3s2)cc1=O [NZ-418, 2-{4-[(6-fluoro-1,3-benzothiazol-2-yl)oxy]-2-oxo-1,2-dihydropyridin-1-yl}acetic acid] | ≥ 100 | ≥ 100 |  |
| CNC(=O)Cn1ccc(Oc2nc3ccc(F)cc3s2)cc1=O [NZ-419, 2-{4-[(6-fluoro-1,3-benzothiazol-2-yl)oxy]-2-oxo-1,2-dihydropyridin-1-yl}-N-methylacetamide] | ≥ 100 | ≥ 100 |  |
| CC(=O)Nc1ccc(Oc2nc3ccc(F)cc3s2)cc1 [NZ-420, N-{4-[(6-fluoro-1,3-benzothiazol-2-yl)oxy]phenyl}acetamide] | ≥ 100 | ≥ 100 |  |
| O=C(O)Cc1c(F)cc(Oc2nc3ccc(Cl)cc3s2)cc1F [NZ-458, 2-{4-[(6-chloro-1,3-benzothiazol-2-yl)oxy]-2,6-difluorophenyl}acetic acid] | ≥ 100 | ≥ 100 |  |
| O=C(Nc1ccc(Oc2nc3ccc(Cl)cc3s2)cc1)N1CCNCC1 [NZ-509, N-{4-[(6-chloro-1,3-benzothiazol-2-yl)oxy]phenyl}piperazine-1-carboxamide] | ≥ 100 | ≥ 100 |  |
| CC(C(=O)N1CCN(C(C)C)CC1)c1ccc(Oc2nc3ccc(Cl)cc3s2)cc1 (stereo not shown) [NZ-510, 2-{4-[(6-chloro-1,3-benzothiazol-2-yl)oxy]phenyl}-1-[4-(propan-2-yl]piperazin-1-yl]propan-1-one] | ≥ 100 | ≥ 100 |  |
